From patent US20100222384A1 (priority 2009, published 2010)

tested on: Pichinde virus CoAn 3739 strain; assay type: cell-based; conditions: not given

Compound	PICV in vitro inhibition
CCCOCCCCCCN1C[C@H](O)[C@@H](O)[C@H](O)[C@H]1CO [N7-O-DNJ, N-(7-Oxadecyl)deoxynojirimycin]	70%
COCCCCCCCCCN1C[C@H](O)[C@@H](O)[C@H](O)[C@H]1CO [N9-DNJ, N-(9-Methoxynonyl)deoxynojirimycin]	over 99%
CCCCN1C[C@H](O)[C@@H](O)[C@H](O)[C@H]1CO [NB-DNJ, N-Butyl deoxynojirimycin]	over 50%

tested on: Junin virus Candid #1 strain; assay type: cell-based; conditions: read-out: EC50, Junin virus inhibition

Compound	EC50
[N-]=[N+]=Nc1ccc(NCCCCCCN2C[C@H](O)[C@@H](O)[C@H](O)[C@H]2CO)c([N+](=O)[O-])c1 [NAP-DNJ, N-(N-{4′-azido-2′-nitrophenyl}-6-aminohexyl)deoxynojirimycin]	10 µM
CCCCN1C[C@H](O)[C@@H](O)[C@H](O)[C@H]1CO [NB-DNJ, N-Butyl deoxynojirimycin]	350 µM
CCCCCCCCCN1C[C@H](O)[C@@H](O)[C@H](O)[C@H]1CO [NN-DNJ, N-Nonyl deoxynojirimycin]	60 µM
